Values of other authors, collected in patent US20230201171A1, “COMPOSITIONS AND METHODS FOR PREVENTING POST-ERCP PANCREATITIS” (THE BOARD OF TRUSTEES OF THE LELAND STANFORD JUNIOR …, priority 2020, published 2023).

Tested on: post-ERCP pancreatitis (PEP)
Settings: rectal indomethacin alone, current standard of care

COc1ccc2c(c1)c(CC(=O)O)c(C)n2C(=O)c1ccc(Cl)cc1 [rectal indomethacin, indomethacin]
effectiveness of PEP prophylaxis: 35-40%
